From patent publication US8945540B2, “Compositions for enhancing the antibacterial activity of myeloperoxidase and methods of use thereof” (Exoxemis, Inc., priority 2008, dated 2015) come the findings set out here.

The subject of assay [1] is Staphylococcus aureus. The assay can be described thus: Control: microbicidal activity of the amino acid or analogue alone (no glucose, MPO, glucose oxidase) in the presence of blood. To be noted: for log reduction at 5000 µM: Staphylococcus aureus, 1 h, read-out: Log Reduction 60 min. The class given is cell-based. From the text: As a control to determine the microbicidal activity of the amino acids alone, the foregoing procedure was followed without replication, except in the absence of glucose, MPO, and glucose oxidase.

The subject of assay [2] is Staphylococcus aureus. The assay can be described thus: Microbicidal activity of the myeloperoxidase system (p-MPO, glucose oxidase, glucose) with amino acids in the presence of blood, CFU plate counts; synergy determination from these CFU. It counts as cell-based. To be noted: for Average Viability CFU/ml 60 min / Log Reduction 60 min / Log 10 (CFU + 1) Survivors 60 min: MPO 38 U/ml, GO 33.3 U/ml, blood; for Average Viability CFU/ml 50 min / Log Reduction 50 min: single amino acid 2.5 mM, MPO 4.7 U/ml, GO 4.2 U/ml, in the presence of blood. In short, it runs like this: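 Staphylococcus aureus grown 24 hours in TSB at 35° C was washed in saline and added at a final 2-3×10^7 CFU per mL. The bacteria were mixed in 1 mL reactions with porcine myeloperoxidase, glucose oxidase, amino acids, 150 mM sodium chloride and 3% venous whole blood. Adding glucose to 150 mM started killing. After catalase addition, survivors were counted by serial dilution plating on TSA at 37° C for 24 hours.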

Setting [3] is: amino acid alone 5 mM, MPO 0, GO 0, no glucose, blood, without replication.
Where [4] appears, read: MPO 100 μg/mL, AA 20 mM, 30 min.
[5] abbreviates: MPO 100 μg/mL, AA 20 mM, 60 min.
The mark [6] stands for this setting: Table 5, amino acid 5 mM (none: 0 mM).
[7] abbreviates: Table 7, amino acid analogue 5 mM.
Setting [8] is: Table 2, amino acid 5 mM (none: 0 mM).
The mark [9] stands for this setting: Table 4, amino acid 5 mM (none: 0 mM).
The mark [10] stands for this setting: Table 3, amino acid 5 mM (none: 0 mM).
[11] abbreviates: amino acid analogue alone 5 mM, MPO 0, GO 0, no glucose, blood.

Structures are written as SMILES. Where two headings read alike, the source gives them in different places.

Regarding `N[C@H](Cc1c[nH]cn1)C(=O)O` [D-Histidine], the log reduction at 5000 µM in assay [1] (setting [3]) was found to be 0. Also, the “Average Viability CFU/ml 60 min” value in assay [1] (setting [3]) amounted to 22300000 CFU/ml; in assay [2] (setting [6]), 10900 CFU/ml. Also, the “Log 10 (CFU + 1) Survivors” value in assay [2] (MPO 25 μg/mL, AA 5 mM, 30 min) is 7.0; in assay [2] (MPO 25 μg/mL, AA 5 mM, 60 min), 6.0; in assay [2] (MPO 25 μg/mL, AA […], 30 min), 6.9; in assay [2] (MPO 25 μg/mL, AA […], 60 min) it was 5.8; in assay [2] (MPO 100 μg/mL, AA 5 mM, 30 min) it was 5.1; in assay [2] (MPO 100 μg/mL, AA 5 mM, 60 min) it was 4.1. Moreover, the “Log 10 (CFU + 1) Survivors” value in assay [2] (setting [4]) amounted to 6.8; in assay [2] (setting [5]) it was 3.9. In addition, in assay [2] (setting [6]), the “Log Reduction 60 min” value turned out to be 3.4. For the same compound, the “Average Viability CFU/ml 50 min” value in assay [2] (Table 11) stood at 8000000 CFU/ml. Also, the “Log Reduction 50 min” value in assay [2] (Table 11) amounted to 0.5.

Turning to `O=C(O)C1CCCNC1` (centres unmarked) [Nipecotic acid], the log reduction at 5000 µM in assay [1] stood at 0. Also, the “Log Reduction 60 min” value in assay [2] (setting [7]) is reported as 7.4.

`O=C(O)[C@@H]1CCCN1` [L-Proline]: the log reduction at 5000 µM in assay [1] (setting [3]) came to 0. Moreover, the “Average Viability CFU/ml 60 min” value in assay [1] (setting [3]) was 21600000 CFU/ml; in assay [2] (setting [8]) it was 4850 CFU/ml. Moreover, the “Log 10 (CFU + 1) Survivors” value in assay [2] (MPO 25 μg/mL, AA 5 mM, 30 min) amounted to 7.1; in assay [2] (MPO 25 μg/mL, AA 5 mM, 60 min), 3.9; in assay [2] (MPO 25 μg/mL, AA […], 30 min) it was 7.0; in assay [2] (MPO 25 μg/mL, AA […], 60 min), 6.8; in assay [2] (MPO 100 μg/mL, AA 5 mM, 30 min) it was 4.9; in assay [2] (MPO 100 μg/mL, AA 5 mM, 60 min) it was 0.0. Moreover, the “Log 10 (CFU + 1) Survivors” value worked out at 5.8 in assay [2] (setting [4]) and 0.0 in assay [2] (setting [5]). Further, the “Log 10 (CFU + 1) Survivors 60 min” value in assay [2] (setting [8]) is 3.7. For the same compound, the “Log Reduction 60 min” value in assay [2] (setting [8]) is on record as 3.7. The “Average Viability CFU/ml 50 min” value in assay [2] (Table 10) came to 1235000 CFU/ml; in assay [2] (Table 13), 1500000 CFU/ml; in assay [2] (Table 14), 1835000 CFU/ml. Also, the entries for the “Log Reduction 50 min” value in assay [2] (Table 10), in assay [2] (Table 13) and in assay [2] (Table 14) were 1.3, 1.2 and 1.2, respectively.

With `O=C(O)[C@H]1CCCN1` [D-Proline], in assay [1] (setting [3]), the log reduction at 5000 µM amounted to 0.1. Also, the “Average Viability CFU/ml 60 min” value is recorded as 21400000 CFU/ml in assay [1] (setting [3]) and 830 CFU/ml in assay [2] (setting [9]). The “Log 10 (CFU + 1) Survivors” value is recorded as 6.9 in assay [2] (MPO 25 μg/mL, AA 5 mM, 30 min); 2.4 in assay [2] (MPO 25 μg/mL, AA 5 mM, 60 min); 7.3 in assay [2] (MPO 25 μg/mL, AA […], 30 min); 3.7 in assay [2] (MPO 25 μg/mL, AA […], 60 min); 5.7 in assay [2] (MPO 100 μg/mL, AA 5 mM, 30 min); 2.7 in assay [2] (MPO 100 μg/mL, AA 5 mM, 60 min). Also, the results for the “Log 10 (CFU + 1) Survivors” value in assay [2] (setting [4]) and in assay [2] (setting [5]) were 4.8 and 0.0, respectively. Besides, the “Log Reduction 60 min” value in assay [2] (setting [9]) came out at 4.5. The “Average Viability CFU/ml 50 min” value in assay [2] (Table 11) stood at 1890000 CFU/ml. In assay [2] (Table 11), the “Log Reduction 50 min” value is recorded as 1.2.

For `O=C(O)c1cccnc1` [Nicotinic acid], in assay [1] (setting [3]), the log reduction at 5000 µM came out at 0 and the “Average Viability CFU/ml 60 min” value came out at 23200000 CFU/ml. In addition, in assay [2] (setting [10]), the “Average Viability CFU/ml 60 min” value is 4150000 CFU/ml, the “Log 10 (CFU + 1) Survivors 60 min” value came out at 6.6 and the “Log Reduction 60 min” value is recorded as 0.7.

With `N[C@H](CCC(=O)O)C(=O)O` [D-Glutamic acid], the log reduction at 5000 µM in assay [1] is 0. Moreover, the “Average Viability CFU/ml 60 min” value in assay [1] (setting [3]) was 26200000 CFU/ml. In addition, in assay [2] (setting [9]), the “Average Viability CFU/ml 60 min” value is 955000 CFU/ml and the “Log Reduction 60 min” value is reported as 1.4.

In the case of `CC(N)CC(=O)O` (centres unmarked) [3-Aminobutanoic acid], in assay [1] (setting [11]), the log reduction at 5000 µM is 0 and the “Average Viability CFU/ml 60 min” value is listed as 21300000 CFU/ml. For the same compound, in assay [2] (setting [7]), the “Average Viability CFU/ml 60 min” value came to 9 CFU/ml and the “Log Reduction 60 min” value was found to be 6.4.
